Consider one compound from patent US20020183313A1, “1,4-benzodiazepinones and their uses as CCK antagonists” (Fujisawa Pharmaceutical Co., Ltd., priority 1996, published 2002).

Structures are written as SMILES.

The experiment has as its target T1, guinea-pig cerebral cortical membranes (125I-CCK-8 binding) (Cavia porcellus, UniProt H0VZC5).
T1 construct: from tissue; host or cells: guinea-pig cerebral cortex membranes
T1 sequence (H0VZC5 1-426): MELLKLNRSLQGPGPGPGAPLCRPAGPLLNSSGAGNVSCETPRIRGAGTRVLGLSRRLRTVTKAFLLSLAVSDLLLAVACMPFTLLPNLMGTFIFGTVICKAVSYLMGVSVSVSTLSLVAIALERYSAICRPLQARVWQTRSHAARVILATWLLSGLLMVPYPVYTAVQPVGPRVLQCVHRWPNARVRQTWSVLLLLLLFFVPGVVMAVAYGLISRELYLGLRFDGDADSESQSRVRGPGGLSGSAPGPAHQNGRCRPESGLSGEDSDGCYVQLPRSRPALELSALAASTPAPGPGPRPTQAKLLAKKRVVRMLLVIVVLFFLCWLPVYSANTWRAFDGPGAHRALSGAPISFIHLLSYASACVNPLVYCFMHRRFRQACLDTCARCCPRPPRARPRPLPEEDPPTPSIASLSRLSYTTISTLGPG
The experiment can be described thus: [125I]CCK-8 binding to guinea-pig cerebral cortical membranes. The settings on record: test compound 1×10^−8 M; 50 pM 125I-CCK-8; 60 minutes at 37° C. As to the method:
[^125I]CCK-8 binding to guinea-pig cerebral cortical membranes
Guinea-pigs were killed by decapitation and bled to death. Cerebral cortex was removed, minced in a small quantity of 50 mM Tris-HCl buffer (pH 7.4), and homogenized in 20 vol. of the buffer by a glass-teflon homogenizer. The homogenate was centrifuged at 30000× g (16000 rpm) for 10 minutes. The pellet was then resuspended in the same buffer by a glass-teflon homogenizer and recentrifuged at 30000× g for 10 minutes. This procedure (washings) was repeated twice more. The final pellet (membrane) was suspended in incubation medium (see below) so as to obtain a final protein concentration of 4 mg/ml and frozen at −80° C. All manipulations were done at 0-4° C.
(ii) Receptor Binding Assay
The composition of incubation medium was as follows:
10 mM HEPES (pH 6.5), 5 mM MgCl2, 1 mM EGTA, 130 mM NaCI and 0.25 mg/ml bacitracin. Frozen membranes were thawed and aliquots (400 μg, protein) were incubated for 60 minutes under shaking at 37° C. in plastic tubes in 500 μL of incubation medium with 50 pM ^125I-CCK-8 in the presence or absence of test compound (1×10^−8 M). […] After washing the filter with 50 mM Tris-HCl (pH 7.4) buffer containing 0.1% BSA, the radioactivity of the filter was countered. […] The effect of the test compound was expressed as % inhibition of specific ′^125I-CCK-8 binding.

Consider `CC(=O)c1sccc1CN1C(=O)C(NC(=O)Nc2cccc(C)c2)N=C(C(C)C)c2ccccc21` (racemic) [(2)], for which the “Inhibition (%) of specific 125I-CCK-8 binding” value is listed as 97%.
